Assays:
[1] = system: Tyrosine-protein kinase ABL1 (Homo sapiens), P00519 [E255K]; experiment: Binding affinity to human phosphorylated ABL1 E255K mutant (S229 to K512 residues) expressed in mammalian expression system assessed as residual binding level at 10 uM by Kinomescan method relative to control
[2] = target: RAF proto-oncogene serine/threonine-protein kinase (Homo sapiens) (UniProt P04049); experiment: Binding affinity to wild-type human partial length RAF1 (I330 to T640 residues) expressed in bacterial expression system assessed as residual binding level at 10 uM by Kinomescan method relative to control
[3] = target: Mitogen-activated protein kinase 10 (Homo sapiens) (UniProt P53779); experiment: Binding affinity to wild-type human partial length JNK3 (V28 to Q422 residues) expressed in mammalian expression system assessed as residual binding level at 10 uM by Kinomescan method relative to control
Mitogen-activated protein kinase 10 (Homo sapiens), sequence (P53779 whole entry, the tested form may be a part): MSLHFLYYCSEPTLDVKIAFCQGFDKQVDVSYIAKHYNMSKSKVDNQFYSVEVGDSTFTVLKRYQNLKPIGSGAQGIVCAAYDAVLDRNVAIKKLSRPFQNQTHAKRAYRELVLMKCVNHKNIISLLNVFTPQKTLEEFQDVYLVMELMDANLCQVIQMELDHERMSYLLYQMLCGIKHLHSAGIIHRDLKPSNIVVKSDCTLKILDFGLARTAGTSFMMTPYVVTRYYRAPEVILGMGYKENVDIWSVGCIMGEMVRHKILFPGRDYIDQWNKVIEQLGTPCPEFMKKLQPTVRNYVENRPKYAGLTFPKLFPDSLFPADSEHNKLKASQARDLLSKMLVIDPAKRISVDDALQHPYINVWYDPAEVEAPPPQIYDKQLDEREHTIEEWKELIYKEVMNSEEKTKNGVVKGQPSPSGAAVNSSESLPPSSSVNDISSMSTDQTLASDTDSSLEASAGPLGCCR

[4] = target: Bone morphogenetic protein receptor type-1A (Homo sapiens) (UniProt P36894); experiment: Binding affinity to wild-type human partial length BMPR1A (Q214 to I532 residues) expressed in bacterial expression system assessed as residual binding level at 10 uM by Kinomescan method relative to control
Bone morphogenetic protein receptor type-1A (Homo sapiens), sequence (P36894 whole entry, the tested form may be a part): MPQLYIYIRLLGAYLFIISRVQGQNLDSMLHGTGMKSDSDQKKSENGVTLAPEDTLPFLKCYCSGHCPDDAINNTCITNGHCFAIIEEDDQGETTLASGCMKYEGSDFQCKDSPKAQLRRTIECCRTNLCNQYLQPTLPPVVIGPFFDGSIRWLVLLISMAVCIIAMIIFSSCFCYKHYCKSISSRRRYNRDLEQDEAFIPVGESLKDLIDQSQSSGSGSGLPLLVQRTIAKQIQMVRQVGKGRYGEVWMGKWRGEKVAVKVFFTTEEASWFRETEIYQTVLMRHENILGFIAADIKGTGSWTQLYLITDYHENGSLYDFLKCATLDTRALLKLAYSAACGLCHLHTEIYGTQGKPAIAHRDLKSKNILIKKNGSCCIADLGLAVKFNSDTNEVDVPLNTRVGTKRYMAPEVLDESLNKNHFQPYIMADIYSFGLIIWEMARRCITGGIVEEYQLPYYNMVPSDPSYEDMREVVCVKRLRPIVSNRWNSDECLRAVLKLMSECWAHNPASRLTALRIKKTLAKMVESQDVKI

[5] = target: Serine/threonine-protein kinase WNK1 (Homo sapiens) (UniProt Q9H4A3); experiment: Binding affinity to wild-type human partial length WNK1 (Q194 to A490 residues) expressed in mammalian expression system assessed as residual binding level at 10 uM by Kinomescan method relative to control
[6] = system: Tyrosine-protein kinase ABL1 (Homo sapiens), P00519 [M351T]; experiment: Binding affinity to human phosphorylated ABL1 M351T mutant (S229 to K512 residues) expressed in mammalian expression system assessed as residual binding level at 10 uM by Kinomescan method relative to control
[7] = target: Peripheral plasma membrane protein CASK (Homo sapiens) (UniProt O14936); experiment: Binding affinity to wild-type human partial length CASK (M1 to H315 residues) expressed in mammalian expression system assessed as residual binding level at 10 uM by Kinomescan method relative to control
Peripheral plasma membrane protein CASK (Homo sapiens), sequence (O14936 whole entry, the tested form may be a part, canonical isoform): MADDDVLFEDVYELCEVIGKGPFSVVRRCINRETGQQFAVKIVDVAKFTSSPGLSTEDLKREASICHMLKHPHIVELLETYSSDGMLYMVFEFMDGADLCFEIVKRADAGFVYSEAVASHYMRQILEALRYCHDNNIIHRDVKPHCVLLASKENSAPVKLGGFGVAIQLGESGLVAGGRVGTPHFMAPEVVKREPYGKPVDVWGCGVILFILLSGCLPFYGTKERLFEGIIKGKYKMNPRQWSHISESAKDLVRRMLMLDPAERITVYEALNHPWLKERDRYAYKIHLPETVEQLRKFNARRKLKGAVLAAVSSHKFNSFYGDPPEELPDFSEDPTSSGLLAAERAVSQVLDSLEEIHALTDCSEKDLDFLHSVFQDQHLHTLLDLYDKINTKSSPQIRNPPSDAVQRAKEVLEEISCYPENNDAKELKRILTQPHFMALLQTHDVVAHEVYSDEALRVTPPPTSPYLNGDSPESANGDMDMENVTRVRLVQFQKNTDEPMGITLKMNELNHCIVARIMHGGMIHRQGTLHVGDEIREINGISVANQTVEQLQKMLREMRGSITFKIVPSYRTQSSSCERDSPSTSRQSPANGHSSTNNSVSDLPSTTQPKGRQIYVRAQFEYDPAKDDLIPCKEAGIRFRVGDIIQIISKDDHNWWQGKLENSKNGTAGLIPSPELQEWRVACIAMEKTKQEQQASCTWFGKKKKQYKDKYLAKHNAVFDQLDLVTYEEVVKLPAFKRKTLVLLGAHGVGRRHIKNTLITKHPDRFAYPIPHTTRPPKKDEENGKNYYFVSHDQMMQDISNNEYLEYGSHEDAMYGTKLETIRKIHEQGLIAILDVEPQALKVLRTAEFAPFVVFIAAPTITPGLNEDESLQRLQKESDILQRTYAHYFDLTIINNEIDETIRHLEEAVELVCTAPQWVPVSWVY

[8] = target: Casein kinase I isoform gamma-1 (Homo sapiens) (UniProt Q9HCP0); experiment: Binding affinity to wild-type human partial length CSNK1G1 (T15 to S353 residues) expressed in bacterial expression system assessed as residual binding level at 10 uM by Kinomescan method relative to control
[9] = target: Rho-associated protein kinase 2 (Homo sapiens) (UniProt O75116); experiment: Binding affinity to wild-type human partial length ROCK2 (M1 to T431 residues) expressed in mammalian expression system assessed as residual binding level at 10 uM by Kinomescan method relative to control
Rho-associated protein kinase 2 (Homo sapiens), sequence (O75116 whole entry, looked up, the tested form may be a part): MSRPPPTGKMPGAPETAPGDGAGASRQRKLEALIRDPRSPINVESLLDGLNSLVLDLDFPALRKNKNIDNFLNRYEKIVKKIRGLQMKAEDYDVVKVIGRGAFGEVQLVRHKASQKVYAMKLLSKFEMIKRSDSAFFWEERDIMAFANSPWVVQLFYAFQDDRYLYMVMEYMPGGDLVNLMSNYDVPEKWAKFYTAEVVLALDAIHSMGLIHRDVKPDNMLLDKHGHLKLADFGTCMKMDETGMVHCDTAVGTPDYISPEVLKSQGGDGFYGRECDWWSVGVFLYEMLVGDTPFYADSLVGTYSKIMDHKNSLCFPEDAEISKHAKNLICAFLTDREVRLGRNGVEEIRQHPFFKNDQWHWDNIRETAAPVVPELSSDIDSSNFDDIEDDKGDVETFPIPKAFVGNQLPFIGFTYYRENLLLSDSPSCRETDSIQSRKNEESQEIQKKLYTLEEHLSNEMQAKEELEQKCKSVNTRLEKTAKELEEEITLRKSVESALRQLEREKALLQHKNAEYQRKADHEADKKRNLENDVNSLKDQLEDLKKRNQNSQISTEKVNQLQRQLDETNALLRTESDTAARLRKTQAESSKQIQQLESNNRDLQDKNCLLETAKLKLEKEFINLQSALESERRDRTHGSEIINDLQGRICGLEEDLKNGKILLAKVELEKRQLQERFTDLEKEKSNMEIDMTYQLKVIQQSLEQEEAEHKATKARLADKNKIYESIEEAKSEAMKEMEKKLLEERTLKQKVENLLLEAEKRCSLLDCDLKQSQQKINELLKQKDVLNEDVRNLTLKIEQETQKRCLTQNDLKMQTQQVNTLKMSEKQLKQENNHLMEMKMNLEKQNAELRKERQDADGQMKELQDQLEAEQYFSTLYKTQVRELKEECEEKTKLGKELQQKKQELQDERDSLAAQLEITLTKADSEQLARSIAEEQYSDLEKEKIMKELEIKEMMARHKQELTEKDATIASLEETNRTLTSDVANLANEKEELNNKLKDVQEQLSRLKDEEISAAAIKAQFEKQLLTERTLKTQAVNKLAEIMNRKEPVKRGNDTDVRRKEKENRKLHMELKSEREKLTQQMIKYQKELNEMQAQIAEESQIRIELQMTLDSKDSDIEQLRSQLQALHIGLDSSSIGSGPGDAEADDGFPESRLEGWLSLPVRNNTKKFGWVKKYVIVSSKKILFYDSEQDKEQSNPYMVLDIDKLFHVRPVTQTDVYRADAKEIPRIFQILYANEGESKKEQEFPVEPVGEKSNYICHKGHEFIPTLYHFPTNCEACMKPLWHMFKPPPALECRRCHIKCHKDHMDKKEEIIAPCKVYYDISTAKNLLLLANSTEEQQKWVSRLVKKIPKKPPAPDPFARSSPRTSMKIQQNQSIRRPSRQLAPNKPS

[10] = system: Epidermal growth factor receptor (Homo sapiens), P00533 [UNDEFINED MUTATION]; experiment: Binding affinity to human partial length EGFR L747-T751del/Sins mutant expressed in bacterial expression system assessed as residual binding level at 10 uM by Kinomescan method relative to control
[11] = target: Tyrosine-protein kinase JAK2 (Homo sapiens) (UniProt O60674); experiment: Binding affinity to wild-type human partial length JAK2 JH1 catalytic domain (A829 to G1132 residues) expressed in mammalian expression system assessed as residual binding level at 10 uM by Kinomescan method relative to control
[12] = system: Huh-7; experiment: Cytotoxicity against human HuH7 cells assessed as growth inhibition incubated for 48 hrs by Hoechst 33342 staining based assay; assay type: cell-based; settings: Huh-7, 48 h
[13] = target: Tyrosine-protein kinase ABL1 (Homo sapiens) (UniProt P00519); experiment: Binding affinity to wild-type human non-phosphorylated ABL1 (S229 to K512 residues) expressed in mammalian expression system assessed as residual binding level at 10 uM by Kinomescan method relative to control
[14] = target: Serine/threonine-protein kinase MAK (Homo sapiens) (UniProt P20794); experiment: Binding affinity to wild-type human partial length MAK (M1 to P314 residues) expressed in bacterial expression system assessed as residual binding level at 10 uM by Kinomescan method relative to control
[15] = system: Tyrosine-protein kinase ABL1 (Homo sapiens), P00519 [H396P]; experiment: Binding affinity to human phosphorylated ABL1 H396P mutant (S229 to K512 residues) expressed in mammalian expression system assessed as residual binding level at 10 uM by Kinomescan method relative to control
[16] = target: Cyclin-dependent kinase 5 (Homo sapiens) (UniProt Q00535); experiment: Binding affinity to wild-type human full length CDK5 (M1 to P292 residues) expressed in bacterial expression system assessed as residual binding level at 10 uM by Kinomescan method relative to control
[17] = target: cAMP-dependent protein kinase catalytic subunit PRKX (Homo sapiens) (UniProt P51817); experiment: Binding affinity to wild-type human partial length PRKX (M1 to F358 residues) expressed in bacterial expression system assessed as residual binding level at 10 uM by Kinomescan method relative to control
[18] = target: Casein kinase I isoform delta (Homo sapiens) (UniProt P48730); experiment: Binding affinity to wild-type human full length CSNK1D (M1 to K409 residues) expressed in bacterial expression system assessed as residual binding level at 10 uM by Kinomescan method relative to control
[19] = target: STE20-like serine/threonine-protein kinase (Homo sapiens) (UniProt Q9H2G2); experiment: Binding affinity to wild-type human partial length SLK (S14 to A307 residues) expressed in bacterial expression system assessed as residual binding level at 10 uM by Kinomescan method relative to control
[20] = target: Casein kinase II subunit alpha (Homo sapiens) (UniProt P68400); experiment: Binding affinity to wild-type human full length CSNK2A1 (M1 to Q391 residues) expressed in mammalian expression system assessed as residual binding level at 10 uM by Kinomescan method relative to control
[21] = target: Serine/threonine-protein kinase Nek5 (Homo sapiens) (UniProt Q6P3R8); experiment: Binding affinity to wild-type human partial length NEK5 (M1 to M279 residues) expressed in bacterial expression system assessed as residual binding level at 10 uM by Kinomescan method relative to control
[22] = target: Serine/threonine-protein kinase ULK3 (Homo sapiens) (UniProt Q6PHR2); experiment: Binding affinity to wild-type human partial length ULK3 (M1 to Q290 residues) expressed in mammalian expression system assessed as residual binding level at 10 uM by Kinomescan method relative to control
Serine/threonine-protein kinase ULK3 (Homo sapiens), sequence (Q6PHR2 whole entry, the tested form may be a part, canonical isoform): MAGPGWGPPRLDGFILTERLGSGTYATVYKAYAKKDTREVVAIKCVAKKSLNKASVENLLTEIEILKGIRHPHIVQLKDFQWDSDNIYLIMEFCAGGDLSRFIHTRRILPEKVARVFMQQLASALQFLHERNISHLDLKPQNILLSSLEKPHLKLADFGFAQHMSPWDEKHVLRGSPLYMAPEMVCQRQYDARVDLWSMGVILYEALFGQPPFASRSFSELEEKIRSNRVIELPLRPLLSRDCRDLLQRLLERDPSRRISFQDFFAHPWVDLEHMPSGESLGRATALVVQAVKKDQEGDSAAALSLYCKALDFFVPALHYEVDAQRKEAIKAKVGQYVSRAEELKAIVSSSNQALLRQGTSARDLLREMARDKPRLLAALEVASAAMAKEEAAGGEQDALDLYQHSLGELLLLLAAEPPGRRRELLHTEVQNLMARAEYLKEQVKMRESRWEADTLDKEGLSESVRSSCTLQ

[23] = target: Phosphorylase b kinase gamma catalytic chain, skeletal muscle/heart isoform (Homo sapiens) (UniProt Q16816); experiment: Binding affinity to wild-type human full length PHKG1 (M1 to Y387 residues) expressed in bacterial expression system assessed as residual binding level at 10 uM by Kinomescan method relative to control
Phosphorylase b kinase gamma catalytic chain, skeletal muscle/heart isoform (Homo sapiens), sequence (Q16816 whole entry, looked up, the tested form may be a part, canonical isoform): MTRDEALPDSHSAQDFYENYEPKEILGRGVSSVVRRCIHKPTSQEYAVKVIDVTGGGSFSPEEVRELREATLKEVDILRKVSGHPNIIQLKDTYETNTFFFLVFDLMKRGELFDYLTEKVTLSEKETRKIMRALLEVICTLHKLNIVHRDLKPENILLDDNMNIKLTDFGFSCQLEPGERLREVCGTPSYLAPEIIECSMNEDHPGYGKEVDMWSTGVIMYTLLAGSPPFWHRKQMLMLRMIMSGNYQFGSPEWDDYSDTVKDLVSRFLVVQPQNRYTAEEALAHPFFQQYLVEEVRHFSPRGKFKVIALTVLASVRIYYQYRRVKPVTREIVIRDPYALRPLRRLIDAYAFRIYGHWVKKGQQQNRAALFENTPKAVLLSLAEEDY

[24] = target: Cyclin-dependent kinase-like 1 (Homo sapiens) (UniProt Q00532); experiment: Binding affinity to wild-type human full length CDKL1 (M1 to I358 residues) expressed in mammalian expression system assessed as residual binding level at 10 uM by Kinomescan method relative to control
Cyclin-dependent kinase-like 1 (Homo sapiens), sequence (Q00532 whole entry, the tested form may be a part): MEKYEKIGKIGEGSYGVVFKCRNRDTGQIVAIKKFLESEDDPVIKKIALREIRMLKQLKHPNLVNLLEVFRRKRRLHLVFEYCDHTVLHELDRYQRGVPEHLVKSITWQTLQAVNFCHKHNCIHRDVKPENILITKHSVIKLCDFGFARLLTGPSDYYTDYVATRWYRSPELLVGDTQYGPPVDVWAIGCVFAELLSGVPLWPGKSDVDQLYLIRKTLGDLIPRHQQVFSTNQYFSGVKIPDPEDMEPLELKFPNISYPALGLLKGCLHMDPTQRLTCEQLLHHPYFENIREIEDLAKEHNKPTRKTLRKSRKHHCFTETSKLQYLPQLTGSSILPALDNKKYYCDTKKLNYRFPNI

[25] = target: Calcium/calmodulin-dependent protein kinase type 1 (Homo sapiens) (UniProt Q14012); experiment: Binding affinity to wild-type human full length CAMK1 (M1 to L370 residues) expressed in bacterial expression system assessed as residual binding level at 10 uM by Kinomescan method relative to control
Calcium/calmodulin-dependent protein kinase type 1 (Homo sapiens), sequence (Q14012 whole entry, looked up, the tested form may be a part): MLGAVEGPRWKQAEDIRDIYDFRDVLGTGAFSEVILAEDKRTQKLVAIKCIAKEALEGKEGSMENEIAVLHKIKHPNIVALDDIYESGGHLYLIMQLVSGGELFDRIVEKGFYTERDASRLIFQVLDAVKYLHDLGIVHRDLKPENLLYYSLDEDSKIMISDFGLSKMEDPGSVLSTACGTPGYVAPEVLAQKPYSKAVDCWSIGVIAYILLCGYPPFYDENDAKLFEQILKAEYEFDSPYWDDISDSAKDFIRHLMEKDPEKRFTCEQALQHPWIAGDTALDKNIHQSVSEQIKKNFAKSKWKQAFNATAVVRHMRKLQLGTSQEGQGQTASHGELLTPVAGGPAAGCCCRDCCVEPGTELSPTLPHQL

O=C(Nc1cc(-c2cn(CCNc3c4c(nc5ccccc35)CCCC4)nn2)ccn1)Nc1cccc2c1C1CCCCN1C2=O (racemic)
Activity [1]: 1.8% | Activity [2]: 97% | Activity [3]: 1.3% | Activity [4]: 92% | Activity [5]: 100% | Activity [6]: 2.1% | Activity [7]: 65% | Activity [8]: 63% | Activity [9]: 26% | Activity [10]: 75% | Activity [11]: 21% | IC50 [12]: 3 µM | Activity [13]: 1.6% | Activity [14]: 52% | Activity [15]: 0.5% | Activity [16]: 35% | Activity [17]: 15% | Activity [18]: 2.8% | Activity [19]: 30% | Activity [20]: 33% | Activity [21]: 82% | Activity [22]: 43% | Activity [23]: 54% | Activity [24]: 3% | Activity [25]: 52%

From ChEMBL document CHEMBL4390652, “Design, biological evaluation and X-ray crystallography of nanomolar multifunctional ligands targeting simultaneously acetylcholinesterase and glycogen synthase kinase-3” (Eur J Med Chem, 2019)
